“Also recorded” adds a separate entry of the source.
B1: SEQ ID NO:81: polyepitope protein of thirteen contiguous LMP1 and LMP2 CTL epitopes (protein)
chain: MPYLFWLAAISSCSSCPLSKITYGPVFMCLRRRWRRLTVLLSAWILTALTAGFLIFLCLGGLLTMVVMSNTLLSAWIEDPPFNSLYLLEMLWRLYLQQNWWTLALLVLYSFALIALYLQQNW

Columns and labels:
[1] = test system: peptide-sensitised PHA blasts and LCLs; test: 51Cr-release cytotoxicity assay with peptide-specific CTL lines and clones; format: cell-based, human; details: serial dilutions of peptide, compared with wild-type YLLEMLWRL, CTL clone SB7
Procedure: Polyclonal CTL lines and LMP1-specific CTL clones were established according to previously published methods (Moss 1988; Khanna 1998). Briefly, 2×10^6 PBMCs were stimulated with 1×10^6 autologous lymphocytes (responder to stimulator ratio of 2:1) pulsed with 10 μM peptide for 1 hr in 2 ml in a 24-well plate. After 3 days, culture medium with IL-2 (10 U/ml) was added and the cells were further expanded. These lymphocytes were restimulated on day 7 with γ-irradiated (8000 rad) autologous LCLs. After 10 days in culture medium, the cells were used as polyclonal effectors in a standard ^51Cr-release assay against peptide-sensitised autologous PHA blasts.
To generate peripheral blood CTL clones specific for the LMP1 derived peptides, PBMCs of healthy donors were reactivated (2×10^6) PBMCs with peptide-sensitised (10 ug of peptide/ml) autologous lymphocytes (1×10^6) in 2 ml wells of a 24-well plate in culture medium. After 3 days, the cells were seeded onto 0.35% agarose and maintained in T cell growth medium containing rIL2 (50 IU/ml). After another 3 days, growing clones were transferred to 96-well round-bottom tissue culture plates (Life Technologies) and cultured in T cell growth medium containing rIL2 (50-100 IU/ml).
Target cells were pre-sensitized with synthetic peptide epitopes and then incubated with ^51Cr for 90 min. Following incubation, these cells were washed in growth medium and used as targets in a standard 5 h ^51Cr-release assay (Moss, 1988)
To further characterize the minimal T cell epitopes defined by ELISPOT assays we generated polyclonal and clonal CTL lines specific for these epitopes. PBMCs from the healthy seropositive donors were stimulated with synthetic peptide epitopes and the CTL clones or polyclonal lines were established and tested in standard ^51Cr-release assays. The […] peptide-specific CTL clones were generated using initial stimulation with peptide-sensitized autologous PBMC followed by continuous restimulation with irradiated autologous LCL. These CTL clones were screened for […]-specific CTL activity by ^51Cr release assays against peptide-sensitised autologous and allogeneic PHA blast and LCLs. […] Titration of this minimal epitope on autologous PHA blasts further confirmed the fine specificity of this CTL clone (FIG. 5B).

[2] = target: HLA A2 (Homo sapiens, UniProt P04439, D140Y/D185E/D98H/E176V/E277Q/G131W/G231S/I119V/I121R/I166T/I218V/L300P/L318F/N151K/N90K/P208A/P217A/Q86G/Q94H/R138H/R169H/T345S); test: MHC stabilisation assay on T2 cells; format: cell-based; parameters: endogenous in cells; host or cells: T2 (.174×CEM.T2), TAP-negative B×T hybrid cell line; details: 14-16 h at 26° C. then 2-3 h at 37° C., FACS
Procedure: FIG. 7: A: CTL recognition of variant and prototypic BLA A2-restricted LMP1 epitope […]. PHA blasts were sensitized with serial dilutions of each of the peptides and then exposed to either the […]-specific CTL clone, SB7. B: MHC stabilization analysis on T2 cells using variant and prototypic HLA A2-restricted LMP1 epitope. T2 cells were initially incubated with 200 μl of each of the peptides (10 μg/ml) for 14-16 h at 26° C. followed by incubation at 37° C. for 2-3 h. HLA A2 expression on these cells was analysed by FACS using HLA A2-specific monoclonal antibody.
To assess MHC binding by the HLA A2-restricted LMP1 epitope variants from EBV isolates, T2 cells (2×10^5) were incubated with 200 μl of each of the peptides (100 μg/ml) at 26° C. for 14-16 h, followed by incubation at 37° C. for 2-3 h. After the incubations, HLA A2 expression was measured by FACS using a specific monoclonal antibody (HB82, ATCC).

[3] = test system: CD8+ CTL; test: Immunization of HLA A2/K^b transgenic mice, epitope-specific T cell responses; details: mouse, in vivo
Description: HLA A2/K^b transgenic mice used in this study have been described elsewhere (Theobald 1997). These mice express a chimeric class I molecule composed of the alpha 1 & 2 domains of the human A*0201 allele and the alpha 3 domains of the mouse H-2K^b class I molecules. These mice were vaccinated intraperitoneally with 10^8 plaque forming units of recombinant Ad5-LMPpoly or a control adenovirus. After 3 weeks, splenocytes were harvested and tested for epitope-specific T cell responses. These T cell responses were assessed using ELISPOT and in vivo CTL assays as herein described.

Molecule	sensitizing autologous PHA blast to lysis by YLLEMLWRL-specific CTL clone [1]	HLA A2 expression on T2 cells (HLA A2 binding) [2]	CD8+ CTL responses in polyepitope-immunized mice [3]
YFLEILWRL [variant of […] dominant in South-East Asian EBV isolates]	poorly recognized	unable to rescue HLA A2 expression; also recorded: significant loss in HLA A2 binding	–
YLLEILWRL	recognized as efficiently as the wild-type epitope	significantly increased MHC expression on T2 cells	–
B1	–	–	induce CD8+CTL responses
